The values below come from ChEMBL document CHEMBL1129154, “()-SCH 57939: synthesis and pharmacological properties of a potent, metabolically stable cholesterol absorption inhibitor” (1996).

What all share (format): functional, Cricetulus griseus
Test [1] concerns Cricetinae gen. sp. Briefly: Compound was evaluated for the percent reduction in liver cholesterol ester levels in cholesterol fed hamster model at […].
The subject of test [2] is Cricetinae gen. sp. The test can be described thus: Compound was evaluated in vivo for the cholesterol lowering activity in hamster model.
Test [3] has as its system Cricetinae gen. sp. The test can be described thus: Compound was evaluated for the percent reduction in liver cholesterol ester levels in cholesterol fed hamster model at 0.3 mg/kg.
Test [4] concerns Cricetinae gen. sp. The test can be described thus: Compound was evaluated for the percent reduction in liver cholesterol ester levels in cholesterol fed hamster model at 1 mg/kg.
Test [5] concerns Cricetinae gen. sp. The test can be described thus: Compound was evaluated for the percent reduction in liver cholesterol ester levels in cholesterol fed hamster model at 10 mpk.
Test [6] concerns Cricetinae gen. sp. Briefly: Compound was evaluated for the percent reduction in liver cholesterol ester levels in cholesterol fed hamster model at 10 mg/kg.

Turning to `O=C1[C@@H]([C@H](O)COc2ccc(F)cc2)[C@@H](c2ccc(O)cc2)N1c1ccc(F)cc1`, in test [1], the L/CE amounted to 0%. In test [2], `O=C1[C@H]([C@H](O)COc2ccc(F)cc2)[C@@H](c2ccc(O)cc2)N1c1ccc(F)cc1` had an ED50 of 0.27 MPK. Moreover, in test [3], the L/CE was -70%. For `COc1ccc([C@@H]2[C@@H]([C@H](O)COc3ccc(F)cc3)C(=O)N2c2ccccc2)cc1`, the ED50 in test [2] (Cricetinae gen. sp., read-out: ED50) is 0.3 mg/kg. The L/CE in test [4] (1 mg/kg) is -84%. As to `O=C1[C@H]([C@@H](O)COc2ccc(F)cc2)[C@H](c2ccc(O)cc2)N1c1ccc(F)cc1` (racemic), in test [5], the L/CE is listed as -39%. Turning to `COc1ccc([C@@H]2N(c3ccccc3)C(=O)[C@]2(C)[C@@H](O)COc2ccc(F)cc2)cc1` (racemic), the L/CE in test [6] was -48%. For `O=C1[C@H]([C@H](O)COc2ccc(F)cc2)[C@@H](c2ccc(O)cc2)N1c1ccc(F)cc1` (racemic), the ED50 in test [2] is 0.7 MPK. In addition, the L/CE in test [4] is -38%. On to `COc1ccc([C@@H]2[C@@H]([C@H](O)COc3ccc(F)cc3)C(=O)N2c2ccccc2)cc1` (racemic), for which, in test [4] (1 mg/kg), the L/CE was -57%.
